Among the data in ChEMBL document CHEMBL4417633, “Inhibitory polypeptides specific to WNT inhibitors” (2017) are IC50 values, retold here.

Where a SMILES comes first, the peptide text is derived from it.

Assay [1] has as its target T1, Dickkopf WNT-signaling pathway inhibitor 1 (Rattus norvegicus, UniProt A6I0Z0).
T1 sequence (A6I0Z0 whole entry): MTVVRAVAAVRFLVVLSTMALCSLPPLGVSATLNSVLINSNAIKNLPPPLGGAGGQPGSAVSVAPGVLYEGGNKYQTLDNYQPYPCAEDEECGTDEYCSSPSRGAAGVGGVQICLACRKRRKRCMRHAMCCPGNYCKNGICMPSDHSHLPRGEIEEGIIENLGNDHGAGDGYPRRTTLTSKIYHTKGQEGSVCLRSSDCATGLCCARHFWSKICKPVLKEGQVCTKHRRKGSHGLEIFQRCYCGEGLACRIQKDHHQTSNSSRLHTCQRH
The assay can be described thus: Inhibition of biotin-labeled rat recombinant DKK1 assessed as reduction in DKK1 interaction with LRP-6/Fc incubated overnight by chemiluminescence based Alpha-screen assay.

Assay [2] deals with T2, Dickkopf-related protein 1 (Homo sapiens, UniProt O94907).
T2 sequence (O94907 whole entry): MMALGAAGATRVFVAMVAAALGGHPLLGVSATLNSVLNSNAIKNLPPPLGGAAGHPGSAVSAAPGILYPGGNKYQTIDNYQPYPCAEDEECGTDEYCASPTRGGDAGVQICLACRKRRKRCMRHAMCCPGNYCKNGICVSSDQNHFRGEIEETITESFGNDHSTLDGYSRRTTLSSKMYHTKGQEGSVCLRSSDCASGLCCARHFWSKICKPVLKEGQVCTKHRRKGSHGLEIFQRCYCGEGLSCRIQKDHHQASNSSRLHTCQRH
The assay can be described thus: Inhibition of biotin-labeled human recombinant DKK1 assessed as reduction in DKK1 interaction with LRP-6/Fc incubated overnight by chemiluminescence based Alpha-screen assay. Background: Bead proximity is the source of the signal in Alpha formats.

Usually IC50 stands for the concentration that gives 50% inhibition. In the case of `CSCC[C@H](NC(=O)[C@@H]1CCCN1C(=O)[C@H](Cc1ccc(O)cc1)NC(=O)[C@H](CS)NC(=O)[C@H](Cc1cnc[nH]1)NC(=O)[C@H](CC(N)=O)NC(=O)[C@H](Cc1cnc[nH]1)NC(=O)[C@H](CCCCN)NC(=O)[C@H](CCCNC(=N)N)NC(=O)[C@H](CS)NC(=O)[C@H](CCCCN)NC(=O)[C@H](Cc1ccccc1)NC(=O)[C@H](Cc1ccc(O)cc1)NC(=O)[C@H](CO)NC(=O)[C@H](C)NC(=O)[C@@H]1CCCN1C(=O)[C@@H](N)CS)C(=O)N[C@@H](CCC(=O)O)C(=O)N[C@@H](Cc1c[nH]c2ccccc12)C(=O)N[C@@H](CCCNC(=N)N)C(=O)N[C@@H](CS)C(=O)N[C@@H](CC(=O)O)C(=O)NCC(=O)N[C@@H](Cc1ccccc1)C(=O)N[C@@H](CCC(N)=O)C(=O)N[C@@H](CC(=O)O)C(=O)N[C@@H](CS)C(=O)N[C@@H](CCC(=O)O)C(=O)N[C@@H](CC(=O)O)C(=O)NCC(=O)N[C@@H](CO)C(=O)N[C@@H](CC(=O)O)C(=O)N[C@@H](CCC(=O)O)C(=O)N[C@@H](CCC(N)=O)C(=O)N[C@@H](C)C(=O)N[C@@H](CS)C(=O)N1CCC[C@H]1C(=O)N[C@@H](Cc1ccc(O)cc1)C(=O)N[C@@H](CCCNC(=N)N)C(=O)N[C@H](C(=O)O)[C@@H](C)O` (H-CPASYFKCRKHNHCYPMEWRCDGFQDCEDGSDEQACPYRT-OH), the IC50 in assay [1] and in assay [2] was not above 1 nM each time.
`CC[C@H](C)[C@H](NC(=O)[C@H](CC(=O)O)NC(=O)CNC(=O)[C@H](CC(=O)O)NC(=O)[C@H](CS)NC(=O)[C@H](CC(C)C)NC(=O)[C@H](Cc1ccccc1)NC(=O)[C@H](CO)NC(=O)[C@H](Cc1ccccc1)NC(=O)[C@@H]1CCCN1C(=O)[C@H](Cc1ccccc1)NC(=O)[C@H](CS)NC(=O)[C@@H](NC(=O)[C@H](CCCCN)NC(=O)[C@H](CC(=O)O)NC(=O)[C@H](C)NC(=O)[C@H](CS)NC(=O)[C@H](CCSC)NC(=O)[C@H](Cc1ccccc1)NC(=O)[C@H](CCC(=O)O)NC(=O)[C@H](CC(N)=O)NC(=O)[C@H](CCC(N)=O)NC(=O)[C@@H]1CCCN1C(=O)[C@@H](N)CS)[C@@H](C)O)C(=O)N[C@@H](CC(=O)O)C(=O)N[C@@H](CS)C(=O)N[C@@H](Cc1ccc(O)cc1)C(=O)N[C@@H](CC(=O)O)C(=O)NCC(=O)N[C@@H](CO)C(=O)N[C@@H](CC(=O)O)C(=O)N[C@@H](CCC(=O)O)C(=O)N[C@@H](C)C(=O)N[C@@H](Cc1ccc(O)cc1)C(=O)N[C@@H](CS)C(=O)N1CCC[C@H]1C(=O)N[C@@H](CO)C(=O)N[C@@H](CCCNC(=N)N)C(=O)N[C@H](C(=O)O)[C@@H](C)O` (H-CPQNEFMCADKTCFPFSFLCDGDIDCYDGSDEAYCPSRT-OH): the IC50 in assay [1] and in assay [2] was not above 1 nM throughout.
For the compound `CC[C@H](C)[C@H](NC(=O)[C@H](CCCNC(=N)N)NC(=O)[C@H](CS)NC(=O)[C@H](CCC(N)=O)NC(=O)[C@H](Cc1ccccc1)NC(=O)[C@H](Cc1ccc(O)cc1)NC(=O)[C@H](CO)NC(=O)[C@@H](NC(=O)[C@@H]1CCCN1C(=O)[C@@H](N)CS)C(C)C)C(=O)N[C@@H](Cc1ccc(O)cc1)C(=O)N[C@@H](CC(N)=O)C(=O)N[C@@H](Cc1cnc[nH]1)C(=O)N[C@@H](CS)C(=O)N[C@@H](Cc1ccc(O)cc1)C(=O)N1CCC[C@H]1C(=O)N[C@@H](CCSC)C(=O)N[C@@H](CCC(=O)O)C(=O)N[C@@H](Cc1c[nH]c2ccccc12)C(=O)N[C@@H](CCCNC(=N)N)C(=O)N[C@@H](CS)C(=O)N[C@@H](CC(=O)O)C(=O)NCC(=O)N[C@@H](Cc1ccccc1)C(=O)N[C@@H](CCC(=O)O)C(=O)N[C@@H](CC(=O)O)C(=O)N[C@@H](CS)C(=O)N[C@H](C(=O)N[C@@H](CC(=O)O)C(=O)NCC(=O)N[C@@H](CO)C(=O)N[C@@H](CC(=O)O)C(=O)N[C@@H](CCC(=O)O)C(=O)N[C@@H](CCCCN)C(=O)NCC(=O)N[C@@H](CS)C(=O)N1CCC[C@H]1C(=O)N[C@@H](Cc1ccc(O)cc1)C(=O)N[C@@H](CCCNC(=N)N)C(=O)N[C@H](C(=O)O)[C@@H](C)O)C(C)C` (H-CPVSYFQCRIYNHCYPMEWRCDGFEDCVDGSDEKGCPYRT-OH), the IC50 in assay [1] and in assay [2] was not above 1 nM throughout.
Regarding `CSCC[C@H](NC(=O)[C@@H]1CCCN1C(=O)[C@H](Cc1ccc(O)cc1)NC(=O)[C@H](CS)NC(=O)[C@H](Cc1cnc[nH]1)NC(=O)[C@H](CCCCN)NC(=O)[C@H](CC(N)=O)NC(=O)[C@H](Cc1cnc[nH]1)NC(=O)[C@H](CCCNC(=N)N)NC(=O)[C@H](CS)NC(=O)[C@H](CCC(N)=O)NC(=O)[C@H](Cc1ccccc1)NC(=O)[C@H](Cc1ccc(O)cc1)NC(=O)[C@H](CO)NC(=O)[C@H](C)NC(=O)[C@@H]1CCCN1C(=O)[C@@H](N)CS)C(=O)N[C@@H](CCC(=O)O)C(=O)N[C@@H](Cc1c[nH]c2ccccc12)C(=O)N[C@@H](CCCNC(=N)N)C(=O)N[C@@H](CS)C(=O)N[C@@H](CC(=O)O)C(=O)NCC(=O)N[C@@H](Cc1ccccc1)C(=O)N1CCC[C@H]1C(=O)N[C@@H](CC(=O)O)C(=O)N[C@@H](CS)C(=O)N[C@@H](CCC(=O)O)C(=O)N[C@@H](CC(=O)O)C(=O)NCC(=O)N[C@@H](CO)C(=O)N[C@@H](CC(=O)O)C(=O)N[C@@H](CCC(=O)O)C(=O)N[C@@H](CC(C)C)C(=O)N[C@@H](CO)C(=O)N[C@@H](CS)C(=O)N1CCC[C@H]1C(=O)N[C@@H](Cc1ccc(O)cc1)C(=O)N[C@@H](CCCNC(=N)N)C(=O)N[C@H](C(=O)O)[C@@H](C)O` (H-CPASYFQCRHNKHCYPMEWRCDGFPDCEDGSDELSCPYRT-OH), the IC50 in assay [1] and in assay [2] was not above 1 nM throughout.
As to `CC[C@H](C)[C@H](NC(=O)[C@H](CCCCN)NC(=O)[C@H](CC(=O)O)NC(=O)[C@@H]1CCCN1C(=O)[C@H](CS)NC(=O)[C@H](CCSC)NC(=O)[C@H](Cc1ccccc1)NC(=O)[C@H](CCC(=O)O)NC(=O)[C@H](CC(N)=O)NC(=O)[C@H](CO)NC(=O)[C@@H]1CCCN1C(=O)[C@@H](N)CS)C(=O)N[C@@H](CS)C(=O)N[C@@H](Cc1ccccc1)C(=O)N1CCC[C@H]1C(=O)N[C@@H](CC(C)C)C(=O)N[C@@H](CO)C(=O)N[C@@H](Cc1ccccc1)C(=O)N[C@@H](CC(C)C)C(=O)N[C@@H](CS)C(=O)N[C@@H](CC(=O)O)C(=O)NCC(=O)N[C@@H](CCC(=O)O)C(=O)N[C@@H](CC(N)=O)C(=O)N[C@@H](CC(=O)O)C(=O)N[C@@H](CS)C(=O)N[C@@H](CCC(=O)O)C(=O)N[C@@H](CC(=O)O)C(=O)NCC(=O)N[C@@H](CO)C(=O)N[C@@H](CC(=O)O)C(=O)N[C@@H](CCC(=O)O)C(=O)N[C@@H](CC(=O)O)C(=O)N[C@@H](Cc1ccc(O)cc1)C(=O)N[C@@H](CS)C(=O)N1CCC[C@H]1C(=O)N[C@@H](CO)C(=O)N[C@@H](CCCNC(=N)N)C(=O)N[C@H](C(=O)O)[C@@H](C)O` (H-CPSNEFMCPDKICFPLSFLCDGENDCEDGSDEDYCPSRT-OH), the IC50 in assay [1] and in assay [2] was not above 1 nM throughout.
For the compound `CSCC[C@H](NC(=O)[C@@H]1CCCN1C(=O)[C@H](Cc1ccc(O)cc1)NC(=O)[C@H](CS)NC(=O)[C@H](Cc1cnc[nH]1)NC(=O)[C@H](CC(N)=O)NC(=O)[C@H](Cc1ccc(O)cc1)NC(=O)[C@H](CC(N)=O)NC(=O)[C@H](CCCNC(=N)N)NC(=O)[C@H](CS)NC(=O)[C@H](CCCCN)NC(=O)[C@H](Cc1ccccc1)NC(=O)[C@H](Cc1ccc(O)cc1)NC(=O)[C@H](CO)NC(=O)[C@H](C)NC(=O)[C@@H]1CCCN1C(=O)[C@@H](N)CS)C(=O)N[C@@H](CCC(=O)O)C(=O)N[C@@H](Cc1c[nH]c2ccccc12)C(=O)N[C@@H](CCCNC(=N)N)C(=O)N[C@@H](CS)C(=O)N[C@@H](CC(=O)O)C(=O)NCC(=O)N[C@@H](Cc1ccccc1)C(=O)N[C@@H](CCCNC(=N)N)C(=O)N[C@@H](CC(=O)O)C(=O)N[C@@H](CS)C(=O)N[C@@H](CCC(=O)O)C(=O)N[C@@H](CC(=O)O)C(=O)NCC(=O)N[C@@H](CO)C(=O)N[C@@H](CC(=O)O)C(=O)N[C@@H](CCC(=O)O)C(=O)N[C@@H](CCC(=O)O)C(=O)NCC(=O)N[C@@H](CS)C(=O)N1CCC[C@H]1C(=O)N[C@@H](Cc1ccc(O)cc1)C(=O)N[C@@H](CCCNC(=N)N)C(=O)N[C@H](C(=O)O)[C@@H](C)O` (H-CPASYFKCRNYNHCYPMEWRCDGFRDCEDGSDEEGCPYRT-OH), the IC50 in assay [1] and in assay [2] was not above 1 nM throughout.
As for `CSCC[C@H](NC(=O)[C@@H]1CCCN1C(=O)[C@H](Cc1ccc(O)cc1)NC(=O)[C@H](CS)NC(=O)[C@H](Cc1cnc[nH]1)NC(=O)[C@H](CC(N)=O)NC(=O)[C@H](Cc1ccc(O)cc1)NC(=O)[C@H](CC(N)=O)NC(=O)CNC(=O)[C@H](CS)NC(=O)[C@H](CCC(N)=O)NC(=O)[C@H](Cc1ccccc1)NC(=O)[C@H](Cc1ccc(O)cc1)NC(=O)[C@H](CO)NC(=O)[C@H](C)NC(=O)[C@@H]1CCCN1C(=O)[C@@H](N)CS)C(=O)N[C@@H](CCC(=O)O)C(=O)N[C@@H](Cc1c[nH]c2ccccc12)C(=O)N[C@@H](CCCNC(=N)N)C(=O)N[C@@H](CS)C(=O)N[C@@H](CC(=O)O)C(=O)NCC(=O)N[C@@H](Cc1ccccc1)C(=O)N[C@@H](CC(C)C)C(=O)N[C@@H](CC(=O)O)C(=O)N[C@@H](CS)C(=O)N[C@H](C(=O)N[C@@H](CC(=O)O)C(=O)NCC(=O)N[C@@H](CO)C(=O)N[C@@H](CC(=O)O)C(=O)N[C@@H](CCC(=O)O)C(=O)N[C@@H](CCCCN)C(=O)NCC(=O)N[C@@H](CS)C(=O)N1CCC[C@H]1C(=O)N[C@@H](Cc1ccc(O)cc1)C(=O)N[C@@H](CCCNC(=N)N)C(=O)N[C@H](C(=O)O)[C@@H](C)O)C(C)C` (H-CPASYFQCGNYNHCYPMEWRCDGFLDCVDGSDEKGCPYRT-OH), the IC50 in assay [1] and in assay [2] was not above 1 nM throughout.
